Reference: article PMC9517990 (Communications Biology, 2022)

How the values were obtained:
[1] = test system: A/South Korea/90207/2020 WT virus (NA-H275, PA-I38); test: microbe, parasite or virus in culture; format: cell-based, influenza A(H1N1)pdm09 virus; settings: Influenza A virus, MDCK, 24 h, read-out: EC50 nM ± SD (column headed IC50; footnote: EC50)
[2] = target: neuraminidase of A/South Korea/90207/2020 WT virus (NA-H275, PA-I38) (Influenza A virus (A(H1N1)pdm09), UniProt A0A0X9QTS2); format: biochemical

Structure (SMILES)	EC50 [1] [nM]	IC50 [2] [nM]
O=C1c2c(O)c(=O)ccn2N([C@@H]2c3ccccc3SCc3c2ccc(F)c3F)[C@@H]2COCCN12 [Baloxavir, Baloxavir acid]	1 ± 0.2	
CCC(CC)[C@H](NC(C)=O)[C@@H]1[C@H](O)[C@@H](C(=O)O)C[C@H]1N=C(N)N [Peramivir, peramivir]		0.16
